Data as given in patent publication US12234240B2, “Substituted imidazo[5,1-d][1,2,3,5]tetrazines for the treatment of cancer” (The Board of Trustees of the University of Illinois, priority 2018, dated 2025).
Like-named read-outs stand apart in the source and are kept apart here.

How the values were obtained:
[1] = tested on: U87 cells; assay: Cell viability, Alamar Blue, 7-day incubation, U87; type: cell-based; conditions: Homo sapiens, U-87 MG, 168 h, MGMT −, error SEM
Description: (§1) Anticancer activity of C8 substituted imidazotetrazines. With a suite of imidazotetrazines in hand, each compound was evaluated against a panel of human GBM cell lines (Table 1a, Table 1b).

[2] = tested on: D54 cells; assay: Cell viability, Alamar Blue, 7-day incubation, D54; type: cell-based; conditions: Homo sapiens, D54, 168 h, MGMT −, error SEM
Description: as §1

[3] = tested on: T98G cells; assay: Cell viability, Alamar Blue, 7-day incubation, T98G; type: cell-based; conditions: Homo sapiens, 168 h, MGMT +, error SEM
Description: as §1

[4] = tested on: GBM Br23c oncospheres intracranially implanted; assay: Intracranial mouse model of GBM (Br23c oncospheres); type: in vivo; conditions: oral gavage, 15 mg/kg TMZ or equimolar dose
Text: FIG. 5. Evaluation of imidazotetrazines in intracranial mouse models of GBM. GBM Br23c oncospheres were intracranially implanted into female athymic nude mice. Treatment was started 5 days post implantation. […] Compounds were formulated in 10% PEG in PBS immediately prior to each treatment. Number of mice per treatment cohort≥5. Survival curves were compared using log-rank test.
in vivo Efficacy Models. Human GBM Br23c stem-like neurosphere cells were intracranially implanted in female athymic nude mice (150,000 cells/mouse). […] Mice were observed daily for any signs of deterioration, neurotoxicity, or movement disorders. They were inspected for signs of pain and distress, as in accordance with the Johns Hopkins Animal Care and Use Guidelines.

[5] = physchem; conditions: buffered saline (PBS), pH 7.4
Description: Hydrolytic stability of C8 substituted imidazotetrazines. […] A HPLC assay was developed to quantify the fraction of intact prodrug remaining in solution after 2 hours at pH 7.4, 37° C.

[6] = tested on: Br23c GBM oncosphere cell line; assay: Cell viability, Alamar Blue, 7-day, Br23c GBM oncosphere line; type: cell-based; conditions: Homo sapiens, 168 h, error SEM, read-out: 7-day IC50 MGMT − Br23C
[7] = Mouse liver microsome stability assay; type: in vitro ADME
Description: (§2) Liver microsome stability.
(§3) Mouse Liver Microsome Stability Assay. A mixture of PBS (pH 7.4), NADPH regenerating system solution A (Corning Life Sciences), and NADPH regenerating system solution B (Corning Life Sciences) was incubated at 37° C. in a shaking incubator for 5 min. Next, compound was added in DMSO (final concentration 50 μM, 0.5% DMSO) before ice-cold mouse liver microsomes (Thermo Fisher, male CD-1 mice, pooled) were added (final protein concentration of 1 mg/mL). An aliquot was immediately removed, quenched with an equal volume of 100 μM internal standard and 0.5% hydrochloric acid in ice-cold acetonitrile, and centrifuged at 13,000 rcf for 3 min. The supernatant was diluted 1:5 in ddH2O and analyzed by LC-MS. The reactions were incubated at 37° C. in a shaking incubator for 2 h. A second aliquot was removed, quenched and diluted as before and analyzed by LC-MS. The ratio of the areas of analyte:internal standard at 2 hours was compared to the ratio at t0 to determine the percentage of compound remaining. Analysis was performed on an Agilent 6230 LC/MS TOF system with a 1.8 μm, 2.1×50 mm Agilent ZORBAX Eclipse Plus C18 column.

[8] = Stability in the absence of microsomes (microsomes replaced with PBS); type: physicochemical; conditions: liver microsomes replaced with PBS, percentage remaining relative to t0
Description: as §2, §3

[9] = Assessment of hematological toxicity in vivo; conditions: mice
Description: Assessment of hematological toxicity. […] Both lymphocyte (FIG. 3b) and neutrophil (FIG. 8a) concentrations were decreased in TMZ-treated mice. […] Total WBC, lymphocyte, and neutrophil counts for mice treated with these compounds were equivalent to those of control mice.
Assessment of Hematological Toxicity. Male CD-1 IGS mice (n=4 mice/group) were administered a single dose of 125 mg/kg compound intravenously. Imidazotetrazines were formulated with SBEβCD in sterile water immediately prior to injection. Seven days post-treatment, mice were humanely sacrificed and whole blood was collected for assessment of total white blood cells, lymphocytes, neutrophils, platelets, and red blood cells.

[10] = tested on: T98G cells; assay: cells; type: cell-based
Description: FIG. 4. Imidazotetrazines were added to T98G cells with or without 3 h pre-treatment of O6BG (100 μM). IC50 values after 7-day incubation and fold changes between (+/−) O6BG treatments are reported. […] Error is SEM, n≥3. Statistical significance was determined by using a two-sample Student's t-test (two-tailed test, assuming equal variance).

[11] = tested on: genomic DNA of U87 cells; assay: O6-methyldeoxyguanosine quantitation in U87 cells; type: cell-based, human; conditions: 100 or 1000 μM, 8 hours
Description: Novel imidazotetrazines induce alkylation-mediated cancer cell death. […] After 8 hours of incubation with compound, the genomic DNA was isolated, quantified, and hydrolyzed to its constituent deoxyribonucleosides, which were quantitated via LC-MS/MS analysis. […] Further confirmation that the novel compounds remain DNA alkylators was obtained upon pre-treatment with MGMT inhibitor O^6-benzylguanine (O6BG). O6BG is a pseudosubstrate for MGMT that quenches cellular stores of the enzyme, leading to the persistence of O^6-methylguanine DNA adducts.
O^6-Methyldeoxyguanosine Quantitation. U87 cells were plated at 1×10^6 c/w in a 6-well plate before they were treated with compound at the indicated concentration (1% final concentration DMSO). After 8 h incubation, the cells were harvested and pelleted. Genomic DNA was extracted using the DNeasy Blood & Tissue Kit (Qiagen, ID: 69504). DNA was then precipitated using the following procedure: 1/10 v/v 3M sodium acetate (pH 5.2) and 2.5× v/v ethanol was added to each sample which was then kept at −80° C. for 1 h. […] The concentration of DNA in each sample was quantified measuring absorbance on a NanoDrop 2000 UV-Vis Spectrophotometer (Thermo Fisher). […] Hydrolyzed samples were then submitted for LC-MS/MS quantitation. Samples were analyzed with a 5500 QTRAP LC/MS/MS system (AB Sciex) with a 1200 series HPLC system (Agilent).

[12] = tested on: human GBM cell lines; assay: Viability in panel of human GBM cell lines; type: cell-based
Description: as §1

[13] = cited from earlier work
[14] = tested on: glioblastoma; conditions: cited from earlier work
[15] = Table 1a, 7 days, n ≥ 3, read-out: IC50 U87
[16] = Table 1a, 7 days, read-out: IC50 D54
[17] = Table 1a, 7 days, read-out: IC50 T98G

## Cc1ncn2c(=O)n(C)nnc12 [Compound 14, 3,8-dimethylimidazo[5,1-d][1,2,3,5]tetrazin-4(3H)-one]
[1]; [15]
  IC50: 3 ± 1 µM
[2]; [16]
  IC50: 6 ± 3 µM
[3]; [17]
  IC50: 6 ± 1 µM
[4]
  effect on survival in words: no effect
[5]
  half-life: 40 h

## Cn1nnc2c(C(N)=O)ncn2c1=O [TMZ, temozolomide, reference compound]
[1]; [15]
  IC50: 51 ± 8 µM
[1]; Table 1b, read-out: 7-day IC50 U87
  IC50: 51 ± 8 µM
[2]; [16]
  IC50: 12 ± 1 µM
[2]; Table 1b, read-out: 7-day IC50 D54
  IC50: 12 ± 1 µM
[3]; [17]
  IC50: 660 ± 10 µM
[3]; Table 1b, read-out: 7-day IC50 T98G
  IC50: 660 ± 10 µM
[6]
  IC50: 5.2 ± 0.2 µM
[7]; 2 h, percentage remaining relative to t0, error SEM, n ≥ 2
  Stability (2 h, Microsomes): 87 ± 6%
[7]; mouse liver microsomes, 2 hours
  metabolic stability in words: insensitive to metabolic perturbation
[8]
  Stability (2 h, No Microsomes): 86 ± 4%
[9]; 7 days after single IV dose of 125 mg/kg, error SEM, 4 mice
  Cohort weight 7 days Post: 32 ± 1 g
[9]; prior to single IV dose of 125 mg/kg, error SEM, 4 mice
  Cohort weight Pre-treatment: 31 ± 1 g
[9]; single IV dose 125 mg/kg, complete blood count after 7 days
  myelosuppression / white blood cell effect: white blood cell (WBC) depletion
[10]; Homo sapiens, 168 h, without O6BG, 7-day incubation
  IC50: 660 ± 10 µM
[10]; O6BG 100 μM
  enhancement in cytotoxicity after O6BG pre-incubation: eight-fold
[11]
  concentration of O6-methylated deoxyguanosine: Dose dependent increases
[4]
  effect on survival in words: significantly increased median survival compared with vehicle
[12]; GBM cell lines with negligible MGMT expression, read-out: IC50 in cell lines with negligible MGMT expression
  IC50: ≤ 50 µM
[12]; GBM cell lines with significant MGMT expression, read-out: IC50 in cell lines with significant MGMT expression
  IC50: > 300 µM
[13]; humans
  cerebral spinal fluid concentrations as percent of those in the plasma: 20%
[13]; in vivo and in aqueous solutions in vitro
  half-life: ~2 h
[14]; TMZ-treated patients
  myelotoxicity incidence in treated patients: ~20%
[14]; patients whose tumors do not express MGMT
  median survival: approximately two
